Patent US6828315B1, “1-Amino triazoloc4,3-a! quinazoline-5-ones and/or -5-thiones inhibiting phosphodiesterase IV” (Warner-Lambert LLC, priority 1999, dated 2004)

Row | Compound | melting point
1 | O=c1nc2n(Cc3cccc(Cl)c3)nc(N3CCCCCC3)n2c2ccc(Cl)cc12 [Compound 114, 1-(azepan-1-yl)-7-chloro-3-(3-chlorobenzyl)-3H-[1,2,4]triazolo[4,3-a]quinazolin-5one] | 166 °C
2 | O=c1c2cc(Cl)ccc2n2c(N3CCCCCC3)nnc2n1Cc1ccncc1 [Compound 23, 1-(azepan-1-yl)-7-chloro-4-(4-pyridylmethyl)-4H-[1,2,4]triazolo[4,3-a]quinazolin-5-one] | 137 °C
3 | CN(C)c1nn(CC=Cc2ccccc2)c2nc(=O)c3cc(Br)ccc3n12 [Compound 155, 7-Bromo-1-dimethylamino-3-(3-phenyl-allyl)-3H-[1,2,4]triazolo[4,3-a]quinazolin-5-one] | 206 °C
4 | O=c1nc2n(Cc3ccc(Cl)c(Cl)c3)nc(N3CCCCCC3)n2c2ccc(Cl)cc12 [Compound 123, 1-(azepan-1-yl)-7-chloro-3-(3,4-dichlorobenzyl)-3H-[1,2,4]triazolo[4,3-a]quinazolin-5-one] | 212 °C
5 | O=c1nc2n(Cc3cccnc3)nc(N3CCCCCC3)n2c2ccc(Cl)cc12 [Compound 126, 1-(azepan-1-yl)-7-chloro-3-(3-pyridylmethyl)-3H-[1,2,4]triazolo[4,3-a]quinazolin-5-one] | 184 °C
6 | O=c1nc2n(Cc3ccc4c(c3)OCO4)nc(N3CCCC3)n2c2ccc(Br)cc12 (hydrate or solvate) [Compound 149, 3-(benzo[1,3]dioxol-5-ylmethyl)-7-bromo-1-(pyrrolidin-1-yl)-3H-[1,2,4]triazolo[4,3-a]quinazolin-5-one] | 234 °C
7 | O=c1c2cc(Br)ccc2n2c(N3CCCC3)nnc2n1Cc1c[nH]cn1 [Compound 63, 7-Bromo-4-(1H-imidazol-4-ylmethyl)-1-pyrrolidin-1-yl-4H-[1,2,4]triazolo[4,3-a]quinazolin-5-one] | 290 °C (dec.)
8 | C#CCn1c(=O)c2cc(Br)ccc2n2c(N3CCCC3)nnc12 [Compound 70, 7-Bromo-4-prop-2-ynyl-1-pyrrolidin-1-yl-4H-[1,2,4]triazolo[4,3-a]quinazolin-5-one] | 204 °C
9 | O=C(O)Cc1ccc(Cn2c(=O)c3cc(Br)ccc3n3c(N4CCCC4)nnc23)cc1 [Compound 56, [4-(7-Bromo-5-oxo-1-pyrrolidin-1-yl-5H-[1,2,4]triazolo[4,3-a]quinazolin-4-ylmethyl)-phenyl]-acetic acid] | 260 °C
10 | O=C(O)Cc1ccc(Cn2nc(N3CCCCCC3)n3c4ccc(Br)cc4c(=O)nc23)cc1 [Compound 138, [4-(7-Bromo-5-oxo-1-perhydro-azepin-1-yl-5H-[1,2,4]triazolo[4,3-a]quinazolin-3-ylmethyl)-phenyl]-acetic acid] | 269 °C
11 | O=c1nc2n(Cc3ccccc3Cl)nc(N3CCCCCC3)n2c2ccc(Cl)cc12 [Compound 113, 1-(azepan-1-yl)-7-chloro-3-(2-chlorobenzyl)-3H-[1,2,4]triazolo[4,3-a]quinazolin-5-one] | 228 °C
12 | O=c1c2cc(Cl)ccc2n2c(N3CCCCCC3)nnc2n1Cc1cccc(Cl)c1 [Compound 10, 1-(azepan-1-yl)-7-chloro-4-(3-chlorobenzyl)-4H-[1,2,4]triazolo[4,3-a]quinazolin-5-one] | 157 °C
13 | COc1cc(Cn2c(=O)c3cc(Br)ccc3n3c(N4CCCC4)nnc23)cc(OC)c1OC [Compound 55, 7-Bromo-1-pyrrolidin-1-yl-4-(3,4,5-trimethoxy-benzyl)-4H-[1,2,4]triazolo[4,3-a]quinazolin-5-one] | 141 to 143 °C
14 | O=c1nc2n(CC=Cc3ccccc3)nc(N3CCCC3)n2c2ccc(O)cc12 [Compound 161, 7-hydroxy-3-(3-phenylallyl)-1-(pyrrolidin-1-yl)-3H-[1,2,4]triazolo[4,3-a]quinazolin-5-one] | 255 °C
15 | COc1ccccc1Cn1nc(N2CCCCCC2)n2c3ccc(Cl)cc3c(=O)nc12 [Compound 120, 1-(azepan-1-yl)-7-chloro-3-(2-methoxybenzyl)-3H-[1,2,4]triazolo[4,3-a]quinazolin-5-one] | 184 °C
16 | COc1ccc(Cn2nc(N3CCCC3)n3c4ccc(Br)cc4c(=O)nc23)cc1 [Compound 146, 7-Bromo-3-(4-methoxy-benzyl)-1-pyrrolidin-1-yl-3H-[1,2,4]triazolo[4,3-a]quinazolin-5-one] | 164 °C
17 | O=c1nc2n(Cc3ccc(Br)cc3)nc(N3CCCCCC3)n2c2ccc(Cl)cc12 [Compound 116, 1-(azepan-1-yl)-7-chloro-3-(4-bromobenzyl)-3H-[1,2,4]triazolo(4,3-a]quinazolin-5-one] | 244 °C
18 | COC(=O)c1ccc(Cn2nc(N3CCCC3)n3c4ccc(Br)cc4c(=O)nc23)cc1 [Compound 145, 4-(7-bromo-5-oxo-1-(pyrrolidin-1-yl)-5H-[1,2,4]triazolo[4,3-a]-quinazolin-3-ylmethyl)benzoic acid methyl ester] | 193 °C

Second part, the compound after the results:

Row | melting point | Compound
19 | 162 °C | O=c1c2cc(Cl)ccc2n2c(N3CCCCCC3)nnc2n1Cc1ccccc1 [Compound 172, 1-(azepan-1-yl)-4-benzyl-7-chloro-4H-[1,2,4]triazolo[4,3-a]-quinazolin-5-one]
20 | 238 °C | CNc1nnc2n(Cc3ccccc3)c(=O)c3cc(Br)ccc3n12 [Compound 188, 4-Benzyl-7-bromo-1-methylamino-4H-[1,2,4]triazolo[4,3-a]quinazolin-5-one]
21 | 265 °C | Cc1ccc2c(c1)c(=O)n(Cc1ccccc1)c1nnc(N3CCSCC3)n21 [Compound 193, 4-Benzyl-7-methyl-1-thiomorpholin-4-yl-4H-[1,2,4]triazolo[4,3-a]quinazolin-5-one]
22 | 268 °C | CN(C)c1nnc2n(Cc3ccc(CC(N)=O)cc3)c(=O)c3cc(Br)ccc3n12 [Compound 241, 2-[4-(7-Bromo-1-dimethylamino-5-oxo-5H-[1,2,4]triazolo[4,3-a]quinazolin-4-ylmethyl)-phenyl]-acetamide]
23 | 206 °C | Cn1c(=O)c2cc(I)ccc2n2c(N3CCCCCC3)nnc12 [Compound 213, 1-(azepan-1-yl)-7-iodo-4-methyl-4H-[1,2,4]triazolo[4,3-a]-quinazolin-5-one]
24 | 185 °C | Cn1c(=O)c2cc(Cl)ccc2n2c(N3CC4CCC(C)(C3)C4(C)C)nnc12 (stereo not drawn) [Compound 170, 7-Chloro-4-methyl-1-(1,8,8-trimethyl-3-aza-bicyclo[3.2.1]oct-3-yl)-4H-[1,2,4]triazolo[4,3-a]quinazolin-5-one]
25 | 180 to 182 °C | CN1CCN(c2nnc3n(C)c(=O)c4cc(Cl)ccc4n23)CC1 [Compound 169, 7-Chloro-4-methyl-1-(4-methyl-piperazin-1-yl)-4H-[1,2,4]triazolo[4,3-a]quinazolin-5-one]
26 | 163 °C | CN(C)c1nnc2n(Cc3ccc(C#N)cc3)c(=O)c3cc(N)ccc3n12 [Compound 228, 4-(7-Amino-1-dimethylamino-5-oxo-5H-[1,2,4]triazolo[4,3-a]quinazolin-4-ylmethyl)-benzonitrile]
27 | 189 °C | O=c1c2cc(Br)ccc2n2c(N3CCOCC3)nnc2n1Cc1ccccc1 [Compound 180, 4-Benzyl-7-bromo-1-morpholin-4-yl-4H-[1,2,4]triazolo[4,3-a]quinazolin-5-one]
